Where two headings read alike, the source gives them in different places.
Assays:
[1] = system: Key Broadleaf Weed and Crop Species; test: Post-Emergent Test II: postemergent herbicidal activity, visual rating after 14 d (Table 7); type: in vivo; conditions: post-emergence, 336 h; for pest or weed control at 35 g/ha: 35 g ai/ha; for pest or weed control at 70 g/ha: 70 g ai/ha; for pest or weed control at 140 g/ha: 140 g ai/ha
In short: (§1)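 Greenhouse-grown plants at the first or second true leaf stage (7-21 d, ~15 h photoperiod, 23-29° C day) were sprayed with compound in acetone/DMSO-based aqueous spray containing crop oil concentrate and Triton X-155 at 187 L/ha. Injury versus untreated plants was rated visually after 14 d on a 0-100 scale.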

[2] = system: Key Grass and Sedge Weeds as well as Grass Crops; test: Post-Emergent Test II: postemergent herbicidal activity, visual rating after 14 d (Table 8); type: in vivo; conditions: post-emergence, 336 h; for pest or weed control at 35 g/ha: 35 g ai/ha; for pest or weed control at 70 g/ha: 70 g ai/ha; for pest or weed control at 140 g/ha: 140 g ai/ha
In short: as §1

[3] = lambsquarters (Chenopodium album), read-out: Visual Growth Reduction (%) 14 Days After Application CHEAL
[4] = oilseed rape, canola (Brassica napus), read-out: Visual Growth Reduction (%) 14 Days After Application BRSNN
[5] = redroot pigweed (Amaranthus retroflexus), read-out: Visual Growth Reduction (%) 14 Days After Application AMARE
[6] = sunflower (Helianthus annuus), read-out: Visual Growth Reduction (%) 14 Days After Application HELAN
[7] = velvetleaf (Abutilon theophrasti), read-out: Visual Growth Reduction (%) 14 Days After Application ABUTH
[8] = wild poinsettia (Euphorbia heterophylla), read-out: Visual Growth Reduction (%) 14 Days After Application EPHHL
[9] = barnyardgrass (Echinochloa crus-galli), read-out: Visual Growth Reduction (%) 14 Days After Application ECHCG
[10] = giant foxtail (Setaria faberi), read-out: Visual Growth Reduction (%) 14 Days After Application SETFA
[11] = maize, corn (Zea mays), read-out: Visual Growth Reduction (%) 14 Days After Application ZEAMX
[12] = rice (Oryza sativa), read-out: Visual Growth Reduction (%) 14 Days After Application ORYSA
[13] = wheat, spring (Triticum aestivum), read-out: Visual Growth Reduction (%) 14 Days After Application TRZAS
[14] = yellow nutsedge (Cyperus esculentus), read-out: Visual Growth Reduction (%) 14 Days After Application CYPES

SMILES: Nc1cc(-c2ccc3c(c2F)OC(F)(F)O3)nc(C(=O)O)c1Cl [Compound 41]
- pest or weed control at 35 g/ha [1, 3]: 85 to 94%
- pest or weed control at 70 g/ha [1, 3]: 85 to 94%
- pest or weed control at 140 g/ha [1, 3]: 85 to 94%
- pest or weed control at 35 g/ha [1, 4]: 60 to 74%
- pest or weed control at 70 g/ha [1, 4]: 75 to 84%
- pest or weed control at 140 g/ha [1, 4]: 75 to 84%
- pest or weed control at 35 g/ha [1, 5]: 95 to 100%
- pest or weed control at 70 g/ha [1, 5]: 95 to 100%
- pest or weed control at 140 g/ha [1, 5]: 95 to 100%
- pest or weed control at 35 g/ha [1, 6]: 0 to 29%
- pest or weed control at 70 g/ha [1, 6]: 60 to 74%
- pest or weed control at 140 g/ha [1, 6]: 60 to 74%
- pest or weed control at 35 g/ha [1, 7]: 60 to 74%
- pest or weed control at 70 g/ha [1, 7]: 75 to 84%
- pest or weed control at 140 g/ha [1, 7]: 75 to 84%
- pest or weed control at 35 g/ha [1, 8]: 95 to 100%
- pest or weed control at 70 g/ha [1, 8]: 95 to 100%
- pest or weed control at 140 g/ha [1, 8]: 95 to 100%
- pest or weed control at 35 g/ha [2, 9]: 75 to 84%
- pest or weed control at 70 g/ha [2, 9]: 85 to 94%
- pest or weed control at 140 g/ha [2, 9]: 95 to 100%
- pest or weed control at 35 g/ha [2, 10]: 75 to 84%
- pest or weed control at 70 g/ha [2, 10]: 85 to 94%
- pest or weed control at 140 g/ha [2, 10]: 85 to 94%
- pest or weed control at 35 g/ha [2, 11]: 60 to 74%
- pest or weed control at 70 g/ha [2, 11]: 75 to 84%
- pest or weed control at 140 g/ha [2, 11]: 75 to 84%
- pest or weed control at 35 g/ha [2, 12]: 0 to 29%
- pest or weed control at 70 g/ha [2, 12]: 0 to 29%
- pest or weed control at 140 g/ha [2, 12]: 0 to 29%
- pest or weed control at 35 g/ha [2, 13]: 30 to 44%
- pest or weed control at 70 g/ha [2, 13]: 30 to 44%
- pest or weed control at 140 g/ha [2, 13]: 45 to 59%
- pest or weed control at 35 g/ha [2, 14]: 0 to 29%
- pest or weed control at 70 g/ha [2, 14]: 0 to 29%
- pest or weed control at 140 g/ha [2, 14]: 0 to 29%

SMILES: Nc1c(F)c(-c2ccc3c(c2F)OC(F)(F)O3)nc(C(=O)O)c1Cl [Compound 11]
- pest or weed control at 35 g/ha [1, 3]: 95 to 100%
- pest or weed control at 70 g/ha [1, 3]: 95 to 100%
- pest or weed control at 140 g/ha [1, 3]: 95 to 100%
- pest or weed control at 35 g/ha [1, 4]: 85 to 94%
- pest or weed control at 70 g/ha [1, 4]: 85 to 94%
- pest or weed control at 140 g/ha [1, 4]: 85 to 94%
- pest or weed control at 35 g/ha [1, 6]: 95 to 100%
- pest or weed control at 70 g/ha [1, 6]: 95 to 100%
- pest or weed control at 140 g/ha [1, 6]: 95 to 100%
- pest or weed control at 35 g/ha [1, 7]: 85 to 94%
- pest or weed control at 70 g/ha [1, 7]: 85 to 94%
- pest or weed control at 140 g/ha [1, 7]: 95 to 100%
- pest or weed control at 35 g/ha [1, 8]: 95 to 100%
- pest or weed control at 70 g/ha [1, 8]: 95 to 100%
- pest or weed control at 140 g/ha [1, 8]: 95 to 100%
- pest or weed control at 35 g/ha [2, 9]: 85 to 94%
- pest or weed control at 70 g/ha [2, 9]: 95 to 100%
- pest or weed control at 140 g/ha [2, 9]: 95 to 100%
- pest or weed control at 35 g/ha [2, 10]: 75 to 84%
- pest or weed control at 70 g/ha [2, 10]: 85 to 94%
- pest or weed control at 140 g/ha [2, 10]: 95 to 100%
- pest or weed control at 35 g/ha [2, 11]: 60 to 74%
- pest or weed control at 70 g/ha [2, 11]: 60 to 74%
- pest or weed control at 140 g/ha [2, 11]: 75 to 84%
- pest or weed control at 35 g/ha [2, 12]: 0 to 29%
- pest or weed control at 70 g/ha [2, 12]: 0 to 29%
- pest or weed control at 140 g/ha [2, 12]: 30 to 44%
- pest or weed control at 35 g/ha [2, 13]: 60 to 74%
- pest or weed control at 70 g/ha [2, 13]: 60 to 74%
- pest or weed control at 140 g/ha [2, 13]: 75 to 84%
- pest or weed control at 35 g/ha [2, 14]: 0 to 29%
- pest or weed control at 70 g/ha [2, 14]: 95 to 100%
- pest or weed control at 140 g/ha [2, 14]: 95 to 100%

SMILES: COC(=O)c1nc(-c2ccc3c(c2)OC(F)(F)O3)nc(N)c1Cl [Compound 60]
- pest or weed control at 35 g/ha [1, 3]: 60 to 74%
- pest or weed control at 70 g/ha [1, 3]: 75 to 84%
- pest or weed control at 140 g/ha [1, 3]: 85 to 94%
- pest or weed control at 35 g/ha [1, 4]: 45 to 59%
- pest or weed control at 70 g/ha [1, 4]: 60 to 74%
- pest or weed control at 140 g/ha [1, 4]: 60 to 74%
- pest or weed control at 35 g/ha [1, 5]: 0 to 29%
- pest or weed control at 70 g/ha [1, 5]: 30 to 44%
- pest or weed control at 140 g/ha [1, 5]: 45 to 59%
- pest or weed control at 35 g/ha [1, 6]: 75 to 84%
- pest or weed control at 70 g/ha [1, 6]: 75 to 84%
- pest or weed control at 140 g/ha [1, 6]: 75 to 84%
- pest or weed control at 35 g/ha [1, 7]: 30 to 44%
- pest or weed control at 70 g/ha [1, 7]: 60 to 74%
- pest or weed control at 140 g/ha [1, 7]: 75 to 84%
- pest or weed control at 35 g/ha [1, 8]: 75 to 84%
- pest or weed control at 70 g/ha [1, 8]: 75 to 84%
- pest or weed control at 140 g/ha [1, 8]: 85 to 94%
- pest or weed control at 35 g/ha [2, 9]: 60 to 74%
- pest or weed control at 70 g/ha [2, 9]: 75 to 84%
- pest or weed control at 140 g/ha [2, 9]: 85 to 94%
- pest or weed control at 35 g/ha [2, 10]: 30 to 44%
- pest or weed control at 70 g/ha [2, 10]: 60 to 74%
- pest or weed control at 140 g/ha [2, 10]: 75 to 84%
- pest or weed control at 35 g/ha [2, 11]: 60 to 74%
- pest or weed control at 70 g/ha [2, 11]: 75 to 84%
- pest or weed control at 140 g/ha [2, 11]: 85 to 94%
- pest or weed control at 35 g/ha [2, 12]: 0 to 29%
- pest or weed control at 70 g/ha [2, 12]: 0 to 29%
- pest or weed control at 140 g/ha [2, 12]: 0 to 29%
- pest or weed control at 35 g/ha [2, 13]: 45 to 59%
- pest or weed control at 70 g/ha [2, 13]: 60 to 74%
- pest or weed control at 140 g/ha [2, 13]: 60 to 74%
- pest or weed control at 35 g/ha [2, 14]: 75 to 84%
- pest or weed control at 70 g/ha [2, 14]: 85 to 94%
- pest or weed control at 140 g/ha [2, 14]: 85 to 94%
